The source of these data is ChEMBL document CHEMBL4613264, “Design, Synthesis, and Biological Evaluation of New Peripheral 5HT2A Antagonists for Nonalcoholic Fatty Liver Disease” (J Med Chem, 2020).

In data set [1] the target is 5-hydroxytryptamine receptor 2A (Homo sapiens, UniProt P28223). Briefly: Antagonist activity at 5HT2A receptor (unknown origin) expressed in HEK293 cells assessed as inhibition of serotonin hydrochloride-induced calcium flux preincubated for 1 hr followed by serotonin hydrochloride addition by calcium 6 dye based FLIPR assay. Type of data set: functional, cell-based. For orientation: A change in cytosolic calcium serves as a functional read-out for many receptors and channels.

The nature of a further data set: in vitro. The note with it: rat, liver microsomes.
Data set [2] can be described thus: Stability in human liver microsomes assessed as parent compound remaining measured after 30 mins. Type of data set: ADME, Microsome. The note with it: read-out: Stability. In general terms: Liver microsomes are a subcellular fraction often used to study metabolism.
A short description of data set [3]: Permeability of the compound by PAMPA. The note with it: read-out: permeability. Type of data set: ADME. On the technique in general: In PAMPA a lipid-coated filter parts donor from acceptor wells.
Data set [4] in a line: Plasma concentration in ICR mouse at 5 mg/kg, iv measured after 0.5 hrs by LC-MS/MS analysis. Type of data set: ADME, organism-based.
The nature of data set [5]: Drug level in ICR mouse brain at 5 mg/kg, iv measured after 0.5 hrs by LC-MS/MS analysis. The class given is ADME, organism-based. The note with it: read-out: Drug uptake.
A short description of data set [6]: Ratio of drug level in brain to plasma of ICR mouse at 5 mg/kg, iv measured after 0.5 hrs by LC-MS/MS analysis. Type of data set: ADME, organism-based. The note with it: read-out: BPR.
Data set [7] in a line: Ratio of drug level in brain to plasma of ICR mouse at 10 mg/kg, ip measured after 0.5 hrs by LC-MS/MS analysis. The note with it: read-out: BPR.
Data set [8] can be described thus: Drug level in ICR mouse brain at 10 mg/kg, ip measured after 0.5 hrs by LC-MS/MS analysis. The note with it: read-out: Drug uptake.
A short description of data set [9]: Plasma concentration in ICR mouse at 10 mg/kg, ip measured after 0.5 hrs by LC-MS/MS analysis.

For orientation: IC50 means the concentration at which inhibition is half-maximal.

Sequence of 5-hydroxytryptamine receptor 2A (P28223 whole entry): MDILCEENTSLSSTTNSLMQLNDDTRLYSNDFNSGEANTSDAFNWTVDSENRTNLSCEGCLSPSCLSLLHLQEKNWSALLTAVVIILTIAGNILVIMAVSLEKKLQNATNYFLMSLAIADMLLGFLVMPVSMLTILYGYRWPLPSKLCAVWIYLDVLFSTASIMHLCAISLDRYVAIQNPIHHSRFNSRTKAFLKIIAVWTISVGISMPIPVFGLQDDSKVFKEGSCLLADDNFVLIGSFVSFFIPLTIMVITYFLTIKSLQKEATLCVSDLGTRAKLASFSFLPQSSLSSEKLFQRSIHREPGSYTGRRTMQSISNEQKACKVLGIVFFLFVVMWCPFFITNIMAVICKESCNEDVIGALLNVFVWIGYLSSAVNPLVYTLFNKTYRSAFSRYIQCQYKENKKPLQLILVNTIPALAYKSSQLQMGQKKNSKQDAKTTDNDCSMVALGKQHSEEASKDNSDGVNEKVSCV
Description for in vitro: Stability in rat liver microsomes assessed as parent compound remaining measured after 30 mins

In the case of `CC(C)COc1ccc(CNC(=O)N(Cc2ccc(F)cc2)C2CCN(S(C)(=O)=O)CC2)cc1`, the IC50 in data set [1] came to 2020 nM.

In the case of `O=C1CC2(CCCC2)CC(=O)N1CCCCN1CCN(c2ncccn2)CC1` [BUSPIRONE], the remaining at 0.5 h in “in vitro” turned out to be 15%; in data set [2] it was 4%.

On to `CN1CCC(N(Cc2ccc(F)cc2)C(=O)NCc2ccc(OCC(O)CN3CCC(c4noc5cc(F)ccc45)CC3)cc2)CC1` (configuration not stated), for which the Papp in data set [3] is 4.79 ×10⁻⁶ cm/s. The IC50 in data set [1] came to 0.39 nM. Also, the concentration at 0.5 h in data set [4] came to 455 ng/mL; in data set [5] it was 741 ng/g. Moreover, the Kp at 0.5 h in data set [6] was 1.63.

For the compound `CC(C)COc1ccc(CNC(=O)N(Cc2ccc(F)cc2)C2CCN(C)CC2)cc1` [PIMAVANSERIN], the Kp at 0.5 h in [7] is 4.98. Besides, the figures for the concentration at 0.5 h in [8] and in data set [9] were 3010 ng/g and 612 ng/mL, respectively.

For `CN1CCC(N(Cc2ccc(F)cc2)C(=O)NCc2ccc(OCC(O)CN3CCN(C(=O)OC(C)(C)C)CC3)cc2)CC1` (configuration not stated), in data set [1], the IC50 was 1.94 nM.
